Test system: Hydrilla verticillata
Test: Greenhouse container test, static exposure of Hydrilla verticillata in water columns
Assay type: in vivo
Settings: for Hydrilla Shoot Length: static exposure, 11 WAT, control 30.4 cm
Experimental: To begin the experiment, PVC cylinders were filled and maintained with a volume of 4000 ml of dechlorinated water that was maintained at room temperature (24° C.). To each cylinder, an established Hydrilla verticillata plant (potted in sand mixture) was transferred into the water column. Hydrilla plants were selected for uniformity and length of shoot growth (approx 15 cm). Plants were allowed to equilibrate in the columns for 24 hrs prior to herbicide treatment. Experimental treatments included an untreated control, and imazamox at 50 and 100 ppb of actual acid equivalent of herbicide. Treatments were applied to water columns by the use of a pipette. Amount of herbicide applied was based on the total volume of the cylinders (4000 ml). After initial herbicide treatment, the water columns were gently stirred to ensure uniform distribution. Treatments were arranged as a completely random design with 3 replications. Each cylinder was considered the experimental unit. Greenhouse conditions were maintained at 24/18° C. (day/night) cycle for the duration of the experiment. Natural day length was supplemented with halogen lighting to provide a 14 h photoperiod. Water level in the cylinders was periodically checked and maintained at the 4000 ml level for the duration of the study. After 11 weeks of exposure, Hydrilla shoot lengths were measured to ascertain herbicide effects.

COCc1cnc(C2=NC(C)(C(C)C)C(=O)N2)c(C(=O)O)c1 (racemic) [Imazamox, (RS)-2-(4-isopropyl-4-methyl-5-oxo-2-imidazolin-2-yl)-5-methoxymethylnicotinic acid]
effect on the growth of Hydrilla (after the exposure period (11 weeks)): significant effect
visual symptomology (after the exposure period (11 weeks), intensity tended to be rate responsive): reduction in plant vigour, chlorosis and reduction of internodal length
Hydrilla Shoot Length (rate 50 ppb): 18.5 cm
Hydrilla Shoot Length (rate 100 ppb): 12.3 cm

Source: patent publication US8080497B2, “Method of controlling the aquatic weed Hydrilla verticillata” (BASF SE, priority 2005, dated 2011)
